Test results as given in the supplement of paper PMC10307832.

What was measured:
Test in all cases: relative viability (nuclei count vs DMSO), 5 days (fraction); higher = more cells survive
Fedratinib + Navitoclax = compound: Cc1cnc(Nc2ccc(OCCN3CCCC3)cc2)nc1Nc1cccc(S(=O)(=O)NC(C)(C)C)c1 [Fedratinib] + CC1(C)CCC(c2ccc(Cl)cc2)=C(CN2CCN(c3ccc(C(=O)NS(=O)(=O)c4ccc(N[C@H](CCN5CCOCC5)CSc5ccccc5)c(S(=O)(=O)C(F)(F)F)c4)cc3)CC2)C1 [Navitoclax] (partner 0.5 µM)
In short: (§1)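 Relative viability equals treated-well nuclei counts divided by vehicle-well nuclei counts. Counts came from 4× images of lung cancer cell lines grown in 1536-well plates for 5 days after pin-tool dosing on the day after seeding. Dosing used one drug alone or a fixed anchor-drug dose plus five library-drug doses (not always all listed) in √10 steps, and values are medians of duplicate plates.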

Fedratinib + OSI-027 = compound: Cc1cnc(Nc2ccc(OCCN3CCCC3)cc2)nc1Nc1cccc(S(=O)(=O)NC(C)(C)C)c1 [Fedratinib] + COc1cccc2cc(-c3nc([C@H]4CC[C@H](C(=O)O)CC4)n4ncnc(N)c34)[nH]c12 [OSI-027] (partner 0.5 µM)
In short: as §1

GW-2580 + Lapatinib = compound: COC1=CC=C(C=C1)COC2=C(C=C(C=C2)CC3=CN=C(N=C3N)N)OC [GW-2580] + CS(=O)(=O)CCNCc1ccc(-c2ccc3ncnc(Nc4ccc(OCc5cccc(F)c5)c(Cl)c4)c3c2)o1 [Lapatinib] (partner 2 µM)
In short: as §1

Fedratinib + Luminespib = compound: Cc1cnc(Nc2ccc(OCCN3CCCC3)cc2)nc1Nc1cccc(S(=O)(=O)NC(C)(C)C)c1 [Fedratinib] + CCNC(=O)c1noc(-c2cc(C(C)C)c(O)cc2O)c1-c1ccc(CN2CCOCC2)cc1 [Luminespib] (partner 0.01 µM)
In short: as §1

Fedratinib + AZD7762 = compound: Cc1cnc(Nc2ccc(OCCN3CCCC3)cc2)nc1Nc1cccc(S(=O)(=O)NC(C)(C)C)c1 [Fedratinib] + NC(=O)Nc1cc(-c2cccc(F)c2)sc1C(=O)N[C@H]1CCCNC1 [AZD7762] (partner 0.2 µM)
In short: as §1

Fedratinib + Dasatinib = compound: Cc1cnc(Nc2ccc(OCCN3CCCC3)cc2)nc1Nc1cccc(S(=O)(=O)NC(C)(C)C)c1 [Fedratinib] + Cc1nc(Nc2ncc(C(=O)Nc3c(C)cccc3Cl)s2)cc(N2CCN(CCO)CC2)n1 [Dasatinib] (partner 0.075 µM)
In short: as §1

Cell Line	relative viability (Fedratinib + Navitoclax; first compound 0.1 µM)	relative viability (Fedratinib + Navitoclax; first compound 0.3162 µM)	relative viability (Fedratinib + Navitoclax; first compound 1 µM)	relative viability (Fedratinib + OSI-027; first compound 0.1 µM)	relative viability (Fedratinib + OSI-027; first compound 0.3162 µM)	relative viability (Fedratinib + OSI-027; first compound 1 µM)	relative viability (GW-2580 + Lapatinib; first compound 0.08 µM)	relative viability (GW-2580 + Lapatinib; first compound 0.8 µM)	relative viability (GW-2580 + Lapatinib; first compound 2.53 µM)	relative viability (GW-2580 + Lapatinib; first compound 8 µM)	relative viability (Fedratinib + Luminespib; first compound 0.1 µM)	relative viability (Fedratinib + Luminespib; first compound 0.3162 µM)	relative viability (Fedratinib + Luminespib; first compound 1 µM)	relative viability (Fedratinib + AZD7762; first compound 0.1 µM)	relative viability (Fedratinib + AZD7762; first compound 0.3162 µM)	relative viability (Fedratinib + AZD7762; first compound 1 µM)	relative viability (Fedratinib + Dasatinib; first compound 0.1 µM)	relative viability (Fedratinib + Dasatinib; first compound 0.3162 µM)	relative viability (Fedratinib + Dasatinib; first compound 1 µM)
201T	1.16	1.18	1.21	0.698	0.613	0.588	1.09	1.11	0.983	1.06	1	1.06	1.02	0.753	0.531	0.593	0.515	0.571	0.545
A549	1.55	1.2	1.1				1.11	1.04	0.89	0.869									
A-427	0.973	0.905	0.933	0.444	0.498	0.118	1.17	1.15	0.98	1.07	0.901	0.884	0.921	0.573	0.671	0.556	0.74	0.733	0.249
ABC-1				0.607	0.467	0.448	1.42	1.03		1.18	0.415	0.655	0.607	0.741	0.877	0.792	0.499	0.629	0.569
BEN	0.0815	0.055	0.0392	0.267	0.297	0.27	0.642	0.795	0.481	0.709	0.312	0.248	0.263	0.623	0.553	0.568	0.36	0.312	0.294
CAL-12T	1	1.15	1.13	0.566	0.694	0.474	0.601	0.662	0.545	0.735	0.175	0.617	0.361	0.594	0.618	0.666	0.47	0.277	0.285
COR-L23	0.936	1.06	0.899	0.741	0.714	0.596	1.26	1.22	1.06	1.06	0.816	0.671	0.602				0.487	0.484	0.512
COR-L 105	0.568	0.657	0.689	0.633	0.649	0.497	0.429	0.393	0.336	0.351	0.753	0.743	0.78				0.29	0.319	0.287
Calu-6	0.828	0.795	0.727				1.14	1.18	1.06	1.08									
ChaGo-K-1	0.786	1.11	0.425	0.431	0.577	0.504					0.61	0.548	0.561	0.921	0.829	0.81	0.515	0.437	0.496
EBC-1	0.28	0.282	0.155				0.193	0.219	0.214	0.21									
EKVX	1.08	0.918	0.944	0.702	0.745	0.758	0.181	0.236	0.189	0.18	0.888	0.866	0.934	0.738	0.815	0.656	0.498	0.681	0.532
EMC-BAC-2	1.19	1.15	1.11	0.323	0.387	0.351	0.909	0.95	0.84	0.901	1.27	1.12	1.18	1.16	1.1	0.912	0.289	0.362	0.285
EPLC-272H	1.14	0.936	1.09	0.276	0.289	0.114	1.13	1.04	0.886	0.916	0.208	0.167	0.205	0.222	0.24	0.168	0.364	0.345	0.0536
H3255	0.533	0.385	0.384	0.521	0.671	0.565	0.216	0.265	0.234	0.249	0.913	0.932	0.59	0.809	0.858	0.794	0.397	0.345	0.293
HARA	1.17	1.12	1.15	0.494	0.575	0.291	0.757	0.902	0.535	0.63	0.103	0.766	0.539	0.429	0.28	0.23	0.217	0.155	0.24
HCC-44	0.914	0.874	1.04	0.482	0.544	0.362	1.12	1.06	0.923	1.04	1.01	0.974	0.972	0.995	1	1			
HCC-78	0.676		0.834	0.366	0.381	0.362	0.917	1.37	0.439	0.752				0.582	0.526	0.497	0.384	0.309	0.306
HCC-366	1.22	1.04	1.07	0.802	0.886	0.849	1.08	1.02	0.977	1.19				0.326	0.234	0.188	0.601	0.595	0.428
IA-LM	0.884	0.721	0.972				0.997	0.862	0.572	0.876									
LCLC-103H				0.415	0.454	0.404					0.9	0.946	0.937	0.857	0.72	0.647	0.492	0.294	0.511

Cell Line	relative viability (Fedratinib + Navitoclax; first compound 0.1 µM)	relative viability (Fedratinib + Navitoclax; first compound 0.3162 µM)	relative viability (Fedratinib + Navitoclax; first compound 1 µM)	relative viability (Fedratinib + OSI-027; first compound 0.1 µM)	relative viability (Fedratinib + OSI-027; first compound 0.3162 µM)	relative viability (Fedratinib + OSI-027; first compound 1 µM)	relative viability (GW-2580 + Lapatinib; first compound 0.08 µM)	relative viability (GW-2580 + Lapatinib; first compound 0.8 µM)	relative viability (GW-2580 + Lapatinib; first compound 2.53 µM)	relative viability (GW-2580 + Lapatinib; first compound 8 µM)	relative viability (Fedratinib + Luminespib; first compound 0.1 µM)	relative viability (Fedratinib + Luminespib; first compound 0.3162 µM)	relative viability (Fedratinib + Luminespib; first compound 1 µM)	relative viability (Fedratinib + AZD7762; first compound 0.1 µM)	relative viability (Fedratinib + AZD7762; first compound 0.3162 µM)	relative viability (Fedratinib + AZD7762; first compound 1 µM)	relative viability (Fedratinib + Dasatinib; first compound 0.1 µM)	relative viability (Fedratinib + Dasatinib; first compound 0.3162 µM)	relative viability (Fedratinib + Dasatinib; first compound 1 µM)
NCI-H358				0.594	0.892	0.47	0.499	0.484	0.409	0.409	0.578	0.2	0.307	0.502	0.49	0.438	0.148	0.147	0.129
NCI-H441	0.534	0.341	0.574	0.443	0.625	0.511					0.331	0.262	0.343	1.34	1.09	1.05	0.618	0.314	0.493
NCI-H520	1.13	1.07	0.983	0.255	0.253	0.216	0.973	0.926	0.849	0.931	0.265	0.194	0.23				0.18	0.205	0.196
NCI-H522				0.629	0.825	0.566					1.14	1.21	1.14	0.829	0.851	0.77	0.88	1.05	0.599
NCI-H650				0.456	0.469	0.454	0.93	1.09	0.801	0.864	0.706	0.733	0.796	1.17	0.933	0.755	0.378	0.434	0.394
NCI-H661				0.729	0.735	0.55	0.448	0.647	0.378	0.459	0.925	0.969	0.846				0.83	0.912	0.612
NCI-H1299	1.04	1.06	1.01				1.04	0.979	0.959	0.886									
NCI-H1563				0.742	0.812	0.754	0.895	0.857	0.831	0.863	0.472	0.504	0.516				0.504	0.44	0.429
NCI-H1623				0.438	0.48	0.38					0.703	0.485	0.505				0.339	0.45	0.408
NCI-H1648				0.221	0.263	0.269								0.818	0.558	0.548			
NCI-H1650	1.25	1.12	1.15		0.69	0.515	0.822	0.895	0.677	0.781		0.186	0.2					0.295	0.231
NCI-H1703	0.482	0.955	0.498				1.1	1.32	1.2	0.946				0.126	0.138	0.121			
NCI-H2009	1.13	1.19	1.1	0.529	0.632	0.455	0.966	0.894	0.91	0.857	1.04	1.09	0.943				0.232	0.241	0.185
NCI-H2023	1.04	0.945	0.946	0.393	0.394	0.328	0.899	0.964	0.633	0.797	0.578	0.581	0.632				0.614	0.476	0.394
NCI-H2228	0.631	0.838	0.599	0.62	0.507	0.482	0.893	1.28	1.38	1.02	0.112	0.12	0.119				0.552	0.448	0.349
NCI-H2342				0.615	0.65	0.559					0.695	0.874	0.837	0.443	0.528	0.56	0.314	0.309	0.273
SK-LU-1		0.917	0.611	0.307	0.35	0.289	0.962	1.14	0.829	0.979	0.181	0.19	0.16				0.143	0.169	0.165
SK-MES-1	1.39	1.19	1.07	0.544	0.6	0.436	0.47	0.496	0.392	0.474	0.741	0.773	0.609				0.285	0.427	0.272
SW 900				0.522	0.539	0.35					0.147	0.171	0.167	0.621	0.692	0.608	0.498	0.51	0.643
SW 1573	0.984	1	0.927	0.564	0.635	0.394	0.979	1.11	1.18	0.856	0.548	0.26	0.145				0.612	0.614	0.305
